The text below walks through data of article PMC8945814, “The Pyrazolo[3,4-d]Pyrimidine Derivative Si306 Encapsulated into Anti-GD2-Immunoliposomes as Therapeutic Treatment of Neuroblastoma” (Biomedicines, 2022).

Data set [1] has as its system subcutaneous NB animal model. Conditions: oral administration; cited from earlier work.
The conditions of data set [2]: cited from earlier work.
On the set-up of data set [3]: method as in PMID 31248184. As to conditions: 25 mg/kg, free compound in vivo; cited from earlier work.
In data set [4] the test system is SH-SY5Y. Briefly: MTT cytotoxicity assay. It is filed as cell-based. Conditions: Homo sapiens, 24 h exposure, 96 h total, ± S.D. As for the experimental part:
(§1) Cytotoxicity experiments were performed to evaluate the effectiveness of Si306, either free (dissolved in DMSO) or encapsulated into untargeted and GD2-targeted liposomes. Briefly, IMR-32, HTLA-230 and SH-SY5Y cells were seeded in 96-well plates (8 × 10^3 cells/well). Human fibroblasts were used as GD2-negative healthy control cells (5 × 10^3 cells/well). The day after seeding, cells were incubated with increasing concentration of Si306 (0.1, 1.0, 10.0 and, 100.0 μM) either free or liposomes-encapsulated, for 24 h at 37 °C. Cells were then washed twice with PBS before replacing them with fresh complete medium and incubating for an additional 72 h (total incubation time equal to 96 h). At the end of the incubation, the MTT (Sigma) assay was performed. The tetrazolium dye was added, then plates were incubated for 3–4 h at 37 °C; formazan crystals were then dissolved in acid isopropanol, and then the optical density of the stained solution was quantified by the use of a Multiskan™ FC Microplate Photometer (Thermo Fisher Scientific Italia, Monza, Italy) at the dual wavelengths of 570 and 650 nm.
In general terms: Tetrazolium assays rely on reduction of a dye to a coloured formazan, in cell work by metabolically active cells.

The subject of data set [5] is IMR-32. The data set is described as follows: MTT cytotoxicity assay. It is filed as cell-based. As to conditions: Homo sapiens, 24 h exposure, 96 h total, ± S.D. As for the experimental part:
as §1

Data set [6] deals with HTLA-230. Briefly: MTT cytotoxicity assay. It is filed as cell-based. Conditions: Homo sapiens, 24 h exposure, 96 h total, ± S.D. On the procedure: as §1
The target of data set [7] is c-Src tyrosine kinase. Conditions: cited from earlier work.
Data set [8] has as its system non-tumoral cells. As to conditions: cited from earlier work.

Regarding `ClC(Cn1ncc2c(Nc3cccc(Br)c3)nc(SCCN3CCOCC3)nc21)c1ccccc1` (centres unmarked) [Si306], in data set [1], the tumor growth entry is “delay of tumor growth”. Moreover, the water solubility result in data set [2] is recorded as “low water solubility”. In addition, in data set [3], the signs of toxicity result was “without signs of toxicity”. Besides, the IC50 in data set [4] was 19.6 ± 0.7 µM; in data set [5], 5.9 ± 1.4 µM; in data set [6], 2.9 ± 0.3 µM. Also, in data set [7], the Ki was 0.13 µM. In addition, in data set [8], the “activity in non-tumoral cells” value is “negligible activity”.

Usually IC50 stands for the midpoint of a concentration-inhibition curve. Read a low IC50 as greater potency. A word on the Ki: it is a dissociation constant, usually derived from enzyme kinetics or from competition with a known ligand.
